Measured values from US20260184725A1, “CYCLIC 2-AMINOPYRIMIDINE COMPOUND AND PHARMACEUTICAL COMPOSITION AND USE THEREOF” (SHANGHAI INSTITUTE OF ORGANIC CHEMISTRY, CHINESE ACADEMY OF …, priority 2023, published 2026).
One block for each molecule: values may come before it.

Tests used:
EGFR^19del/T790M/C797S = target: T1, EGFR^19del/T790M/C797S (Homo sapiens, UniProt P00533, T790M/C797S, form not given); assay: ELISA kinase activity inhibition, EGFR 19del/T790M/C797S; type: biochemical; details: ATP 5 μM, read-out: The average IC50 value (nM) for inhibiting the activity of different tyrosine kinases, EGFR^19del/T790M/C797S
T1 construct: fused on or other part: Probably a GST tag on the cytoplasmic fragment, as in the vendor's product
Experimental: (§1) EGFR (WT) is a wild-type epidermal growth factor receptor.
(§2) Enzyme-Linked Immunosorbent Assay (ELISA) was used to detect the inhibitory effect of compounds on kinase activity.
(§3) The main experimental steps were as follows: Enzyme reaction substrate Poly (Glu, Tyr)4:1 was diluted with potassium free PBS (10 mM sodium phosphate buffer, 150 mM NaCl, pH 7.2-7.4) to 20 μg/mL, and reacted at 37° C. for 12 hours to 16 hours to coat the enzyme-linked immunosorbent assay plate. ATP solution (final concentration 5 μM) diluted with reaction buffer (50 mM HEPES pH 7.4, 50 mM MgCl2, 0.5 mM MnCl2, 0.2 mM Na3VO4, 1 mM DTT) was added to each well, followed by the test compound or solvent control, then the kinase reaction was initiated and the plate was shaken at 37° C. for 1 hour. The plate was washed three times with T-PBS, then added antibody PY99. The plate was shaken at 37° C. for 0.5 hours. After washing the plate with T-PBS, added horseradish peroxidase-labeled IgG and shaken at 37° C. for 0.5 hours. After washing the plate again, added 2 mg/mL of OPD colorimetric solution and incubated at 25° C. in the dark for 1 minutes to 10 minutes. […] The IC50 values were obtained from the inhibition curve analysis.

[1] = system: PC-9-OR (19del/T790M/C797S); assay: CCK-8 cell proliferation, PC-9-OR; type: cell-based; details: PC9-OR; CCK-8, 72 hours; read-out: Average value of IC50 of inhibition against EGFR-mutant cells growth, PC-9-OR (19del/T790M/C797S)
Source text: (§4) Ba/F3 cells were obtained from Deutsche Sammlung von Mikroorganismen und Zellkulturen GmbH (DSMZ). Ba/F3 cells stably expressing EGFR19del/T790M/C797S or EGFR L858R/T790M/C797S were generated by infecting parental cells with corresponding retroviruses. PC-9-OR was a tumor cell model obtained by simultaneously knocking in T790M and C797S mutations into 19del-activating mutation-dependent PC-9 tumor cells using CRISPR technology. This model, which proliferated dependent on EGFR19del/T790M/C797S resistance mutation, was used to evaluate the inhibitory activity of compounds against EGFR19del/T790M/C797S resistance mutants (Cancer Science. 2022; 113:709-720). All cells used in the study were verified by short tandem repeat (STR) analysis conducted by Genesky.
(§5) Tumor cell viability was assessed using a CCK-8 cell counting kit (A311-01/02, Vazyme, Nanjing, China). Cells were seeded at a density of 3000 cells per well into 96-well plates and cultured overnight. Subsequently, the cells were treated with compounds of different concentrations and incubated for 72 hours. After 72 hours, 10 μL of CCK-8 solution was added to each well. The plates were then returned to the incubator and incubated at 37° C. for 2 hours. The absorbance was measured at 450 nm using a microplate reader. A calibration curve was constructed using data obtained from wells containing known numbers of viable cells.

[2] = target: BaF3-EGFR (L858R/T790M/C797S) (Homo sapiens, UniProt P00533, T790M/C797S/L858R, cells depend on it); assay: CCK-8 cell proliferation, BaF3-EGFR(L858R/T790M/C797S); type: cell-based; details: CCK-8, 72 hours; read-out: Average value of IC50 of inhibition against EGFR-mutant cells growth, BaF3-EGFR (L858R/T790M/C797S)
Experimental: (§6) Ba/F3 cells were obtained from Deutsche Sammlung von Mikroorganismen und Zellkulturen GmbH (DSMZ). […] All cells used in the study were verified by short tandem repeat (STR) analysis conducted by Genesky.
as §5

BaF3 parent cell = assay: CCK-8 cell proliferation, BaF3 parent cell; type: cell-based; details: Mus musculus, BaF3; CCK-8, 72 hours; read-out: Average value of IC50 of inhibition against cells growth, BaF3 parent cell
Source text: as §4, §5

EGFR^WT = target: T2, EGFR^WT (Homo sapiens, UniProt P00533); assay: ELISA kinase activity inhibition, wild-type EGFR; type: biochemical; details: ATP 5 μM, read-out: The average IC50 value (nM) for inhibiting the activity of different tyrosine kinases, EGFR^WT
T2 construct: purchased Eurofins
Experimental: as §1, §2, §3

EGFR^L858R/T790M/C797S = EGFR^L858R/T790M/C797S (Homo sapiens, UniProt P00533, C797S/L858R/T790M); assay: ELISA kinase activity inhibition, EGFR L858R/T790M/C797S; type: biochemical; details: ATP 5 μM, read-out: The average IC50 value (nM) for inhibiting the activity of different tyrosine kinases, EGFR^L858R/T790M/C797S
Experimental: as §2, §3

[3] = target: BaF3-EGFR (19del/T790M/C797S) (Homo sapiens, UniProt P00533, T790M/C797S, cells depend on it, form not given); assay: CCK-8 cell proliferation, BaF3-EGFR(19del/T790M/C797S); type: cell-based; details: CCK-8, 72 hours; read-out: Average value of IC50 of inhibition against EGFR-mutant cells growth, BaF3-EGFR (19del/T790M/C797S)
Experimental: as §6, §5

[4] = Pharmacokinetic parameters in rats; type: in vivo; details: male, Sprague-Dawley, plasma, rat
Experimental: Sprague-Dawley rats (males, 3 per group), weighing 180 g to 220 g, were administered test compounds intravenously and orally at doses of 1 mg/kg and 5 mg/kg, respectively. The compounds were dissolved in a mixed solvent (5% DMSO+10% Solutol+85% PBS) for intravenous injection. 0.5% CMC-Na solution (800 cps to 1200 cps) was used as a suspension agent for oral administration. At designated time points, 0.2 mL of blood samples were collected via the jugular vein and placed into tubes containing K2-EDTA, stored on ice, and then centrifuged. Sampling intervals for the injection group were 0.083, 0.25, 0.5, 1, 2, 4, 8, and 24 hours, while for the oral group, sampling intervals were 0.25, 0.5, 1, 2, 4, 6, 8, and 24 hours. The blood samples were centrifuged at 6800 g for 6 minutes at 2° C. to 8° C. within 1 hour after collection and stored frozen at approximately −80° C. Subsequently, 200 μL of MeOH was used to precipitate 20 μL of plasma samples containing 100 ng/mL IS. The mixture was vortexed for 1 minute and then centrifuged at 18000 g for 7 minutes. 200 μL of the supernatant was transferred to a 96-well plate, and 1 μL of the supernatant sample was injected for LC-MS/MS analysis. Finally, Phoenix WinNonlin7.0 software was used to calculate the pharmacokinetic (PK) parameters.

T1 sequence (P00533 with tags, fused parts or gaps DEL746-750/T790M/C797S, form open): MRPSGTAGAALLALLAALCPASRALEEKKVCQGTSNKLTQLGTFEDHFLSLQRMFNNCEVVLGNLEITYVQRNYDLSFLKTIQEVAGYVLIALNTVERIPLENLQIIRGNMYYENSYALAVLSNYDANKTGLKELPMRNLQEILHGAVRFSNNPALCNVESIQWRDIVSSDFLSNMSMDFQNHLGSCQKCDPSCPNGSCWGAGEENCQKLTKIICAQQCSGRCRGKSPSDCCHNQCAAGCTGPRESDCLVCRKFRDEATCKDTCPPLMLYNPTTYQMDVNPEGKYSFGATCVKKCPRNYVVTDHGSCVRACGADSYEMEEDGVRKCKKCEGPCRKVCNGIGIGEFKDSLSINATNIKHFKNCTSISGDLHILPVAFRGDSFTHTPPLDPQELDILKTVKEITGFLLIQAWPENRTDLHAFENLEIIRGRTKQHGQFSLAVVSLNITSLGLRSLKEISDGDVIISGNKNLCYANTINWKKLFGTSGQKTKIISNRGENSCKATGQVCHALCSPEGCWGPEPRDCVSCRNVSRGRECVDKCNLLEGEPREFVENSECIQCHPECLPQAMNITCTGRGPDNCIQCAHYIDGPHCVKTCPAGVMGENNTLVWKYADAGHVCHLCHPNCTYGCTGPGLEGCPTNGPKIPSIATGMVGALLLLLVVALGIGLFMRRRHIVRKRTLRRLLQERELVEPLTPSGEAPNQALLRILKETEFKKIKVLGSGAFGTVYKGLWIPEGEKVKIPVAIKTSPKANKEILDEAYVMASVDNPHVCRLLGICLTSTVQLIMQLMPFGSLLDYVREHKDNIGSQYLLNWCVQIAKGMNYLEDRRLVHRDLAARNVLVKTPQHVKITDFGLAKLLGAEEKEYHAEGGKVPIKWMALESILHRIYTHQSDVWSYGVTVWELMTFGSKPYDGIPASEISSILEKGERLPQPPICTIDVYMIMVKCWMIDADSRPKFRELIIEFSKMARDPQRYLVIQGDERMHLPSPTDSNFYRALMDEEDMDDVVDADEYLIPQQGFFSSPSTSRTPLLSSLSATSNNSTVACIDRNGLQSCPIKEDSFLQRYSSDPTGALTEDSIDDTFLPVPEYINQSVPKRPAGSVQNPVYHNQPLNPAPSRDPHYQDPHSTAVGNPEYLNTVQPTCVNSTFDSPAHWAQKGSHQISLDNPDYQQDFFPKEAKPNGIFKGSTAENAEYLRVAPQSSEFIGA
Sequence of BaF3-EGFR (19del/T790M/C797S) (P00533 with tags, fused parts or gaps DEL746-750/T790M/C797S, form open): as above
Sequence of BaF3-EGFR (L858R/T790M/C797S) (P00533 whole entry T790M/C797S/L858R): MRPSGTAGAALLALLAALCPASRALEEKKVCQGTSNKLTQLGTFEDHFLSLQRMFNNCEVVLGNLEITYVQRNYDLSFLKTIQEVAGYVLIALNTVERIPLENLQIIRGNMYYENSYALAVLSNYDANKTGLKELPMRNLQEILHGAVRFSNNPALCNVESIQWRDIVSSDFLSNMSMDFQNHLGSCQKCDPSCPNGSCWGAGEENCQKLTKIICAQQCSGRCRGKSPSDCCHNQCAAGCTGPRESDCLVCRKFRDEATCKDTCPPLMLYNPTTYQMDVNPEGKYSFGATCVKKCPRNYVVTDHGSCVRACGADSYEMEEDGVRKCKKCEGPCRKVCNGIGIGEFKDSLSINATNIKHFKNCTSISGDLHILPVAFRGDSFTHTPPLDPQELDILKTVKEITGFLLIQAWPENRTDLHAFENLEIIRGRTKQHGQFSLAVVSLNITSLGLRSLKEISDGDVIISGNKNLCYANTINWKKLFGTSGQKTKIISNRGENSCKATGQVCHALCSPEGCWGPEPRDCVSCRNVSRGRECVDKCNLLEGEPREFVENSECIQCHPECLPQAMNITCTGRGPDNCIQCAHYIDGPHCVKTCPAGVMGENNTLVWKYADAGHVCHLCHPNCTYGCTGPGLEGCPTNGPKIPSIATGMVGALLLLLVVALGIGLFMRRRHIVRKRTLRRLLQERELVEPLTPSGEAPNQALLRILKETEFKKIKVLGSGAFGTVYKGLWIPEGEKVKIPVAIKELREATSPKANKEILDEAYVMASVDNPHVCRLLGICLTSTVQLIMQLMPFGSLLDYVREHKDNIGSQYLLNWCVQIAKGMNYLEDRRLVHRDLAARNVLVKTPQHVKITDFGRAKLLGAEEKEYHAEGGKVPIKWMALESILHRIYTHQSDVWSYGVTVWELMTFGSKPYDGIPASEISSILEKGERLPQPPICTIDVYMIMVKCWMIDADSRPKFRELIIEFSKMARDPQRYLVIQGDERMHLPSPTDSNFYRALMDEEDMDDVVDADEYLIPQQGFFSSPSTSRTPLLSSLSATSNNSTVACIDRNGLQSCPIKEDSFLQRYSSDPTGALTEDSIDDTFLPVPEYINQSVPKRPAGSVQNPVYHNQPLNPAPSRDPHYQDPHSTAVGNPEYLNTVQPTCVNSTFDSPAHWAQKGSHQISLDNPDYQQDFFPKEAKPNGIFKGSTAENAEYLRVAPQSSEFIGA
Sequence of EGFR^L858R/T790M/C797S (P00533 25-1210 T790M/C797S/L858R): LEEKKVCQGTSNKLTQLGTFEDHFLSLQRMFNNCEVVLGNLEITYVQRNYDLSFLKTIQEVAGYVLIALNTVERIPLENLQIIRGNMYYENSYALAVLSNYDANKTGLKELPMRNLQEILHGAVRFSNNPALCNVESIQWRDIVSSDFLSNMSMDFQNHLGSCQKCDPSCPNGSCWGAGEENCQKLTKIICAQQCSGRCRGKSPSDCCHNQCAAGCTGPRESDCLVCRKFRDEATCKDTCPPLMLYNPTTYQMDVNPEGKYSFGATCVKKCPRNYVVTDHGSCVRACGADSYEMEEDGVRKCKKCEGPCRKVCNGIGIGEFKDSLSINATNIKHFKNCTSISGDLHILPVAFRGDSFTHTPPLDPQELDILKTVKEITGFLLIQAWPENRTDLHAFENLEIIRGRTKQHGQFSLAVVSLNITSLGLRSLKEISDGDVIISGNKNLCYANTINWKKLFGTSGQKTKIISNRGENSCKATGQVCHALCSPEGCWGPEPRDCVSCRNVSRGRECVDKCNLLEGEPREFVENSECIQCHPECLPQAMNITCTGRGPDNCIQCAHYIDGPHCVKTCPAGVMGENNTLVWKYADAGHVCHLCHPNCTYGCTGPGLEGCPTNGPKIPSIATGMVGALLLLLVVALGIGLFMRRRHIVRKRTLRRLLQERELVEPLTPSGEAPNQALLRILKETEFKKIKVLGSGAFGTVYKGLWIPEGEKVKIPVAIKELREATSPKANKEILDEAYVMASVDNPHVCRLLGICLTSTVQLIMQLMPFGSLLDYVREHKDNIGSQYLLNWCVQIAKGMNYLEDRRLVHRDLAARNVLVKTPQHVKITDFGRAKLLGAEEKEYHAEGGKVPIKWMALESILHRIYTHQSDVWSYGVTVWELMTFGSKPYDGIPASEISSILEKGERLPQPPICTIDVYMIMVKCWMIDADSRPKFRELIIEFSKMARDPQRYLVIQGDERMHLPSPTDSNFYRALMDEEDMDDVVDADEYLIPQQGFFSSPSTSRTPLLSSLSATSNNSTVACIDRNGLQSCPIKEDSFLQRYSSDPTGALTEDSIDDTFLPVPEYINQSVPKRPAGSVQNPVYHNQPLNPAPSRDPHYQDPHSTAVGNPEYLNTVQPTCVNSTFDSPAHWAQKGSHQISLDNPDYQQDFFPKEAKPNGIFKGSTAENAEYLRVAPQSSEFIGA

Compound: Cc1cc(N2CCOCC2)c2cc1Nc1ncc(Cl)c(n1)-c1c[nH]c3cc(ccc13)OCCCn1cc-2cn1 [HC8990, 2^5-Chloro-4^6-Methyl-4^4-morpholino-1^1H,5^1H-9-oxa-3-aza-1(3,6)-Indole-2(4,2)-Pyrimidin-5(4,1)Pyrazol-4(1,3)-benzenacyclononaphane]
IC50 (EGFR^19del/T790M/C797S): 3.4 nM | IC50 [1]: 531 nM | GI50 [2]: 325 nM | IC50 (BaF3 parent cell): 3290 nM | IC50 (EGFR^WT): 342 nM | IC50 (EGFR^L858R/T790M/C797S): 1 nM | GI50 [3]: 429 nM

Compound: CCS(=O)(=O)n1cc2c3ccc(cc31)OCCCn1cc(cn1)-c1cc(c(C)cc1N1CCN(C)CC1)Nc1ncc(Cl)c-2n1 [HC9452, 2^5-chloro-1^1-ethylsulfonyl-4^6-methyl-4^4-(4-methylpiperazin-1-yl)-1^1H,5^1H-9-oxa-3-aza-1(3,6)-indole-2(4,2)-pyrimidine-5(4,1)-pyrazole-4(1,3)-benzenacyclononaphane]
IC50 (EGFR^19del/T790M/C797S): 4.3 nM | IC50 [1]: 81 nM | GI50 [2]: 591 nM | IC50 (BaF3 parent cell): 1790 nM | IC50 (EGFR^WT): 44.7 nM | IC50 (EGFR^L858R/T790M/C797S): 4.3 nM | GI50 [3]: 472 nM

Compound: CCS(=O)(=O)n1cc2c3ccc(cc31)OCCCn1cc(cn1)-c1cc(c(OC)cc1N1CCC(N3CCN(C)CC3)CC1)Nc1nccc-2n1 [HC9594, (Z)-1^1-ethylsulfonyl-4^6-methoxy-4^4-(4-methylpiperazin-1-yl) piperidin-1-yl)-1^1H,5^1H-9-oxa-3-aza-1(3,6)-indole-2(4,2)-pyrimidine-5(4,1)-pyrazolol-4(1,3)-benzenacyclononaphane]
IC50 (EGFR^19del/T790M/C797S): 1.7 nM | IC50 [1]: 925 nM | GI50 [2]: 735 nM | IC50 (BaF3 parent cell): > 10000 nM | IC50 (EGFR^WT): 112 nM | IC50 (EGFR^L858R/T790M/C797S): 2.2 nM | GI50 [3]: 1220 nM

Continued, values first:

IC50 (EGFR^19del/T790M/C797S): 7.3 nM | IC50 [1]: 149 nM | GI50 [2]: 108 nM | IC50 (BaF3 parent cell): 445 nM | IC50 (EGFR^WT): 37.6 nM | IC50 (EGFR^L858R/T790M/C797S): 1.9 nM | GI50 [3]: 86 nM
Compound: CCS(=O)(=O)n1cc2c3ccc(cc31)OCCCn1cc(cn1)-c1cc(c(C)cc1N1CCOCC1)Nc1nccc-2n1 [HC950M, (Z)-1^1-Ethylsulfonyl-4^6-methyl-4^4-morpholino-1^1H,5^1H-9-oxa-3-aza-1 (3,6)-indole-2(4,2)-pyrimidine-5(4,1) pyrazol-4(1,3)-benzenacyclononaphane]

IC50 (EGFR^19del/T790M/C797S): 2.7 nM | IC50 [1]: 155 nM | GI50 [2]: 75 nM | IC50 (BaF3 parent cell): 274 nM | IC50 (EGFR^WT): 802 nM | IC50 (EGFR^L858R/T790M/C797S): 9.3 nM | GI50 [3]: 91 nM
Compound: CCS(=O)(=O)n1cc2c3ccc(cc31)OCCCCn1cc(cn1)-c1cc(ccc1N1CCOCC1)Nc1ncc(Cl)c-2n1 [HC8714, 2^5-Chloro-1^1-Ethylsulfonyl-4^4-morpholino-1^1H,5^1H-10-oxa-3-aza-1(3,6)-Indole-2(4,2)-Pyrimidin-5(4,1)-Pyrazol-4(1,3)-Phenyldecane]

IC50 (EGFR^19del/T790M/C797S): 1.7 nM | IC50 [1]: 269 nM | GI50 [2]: 301 nM | IC50 (BaF3 parent cell): 1820 nM | Cmax ([4]; IV 1 mg/kg): 1570 ± 220 ng/mL | clearance ([4]; IV 1 mg/kg): 9.2 ± 2.1 mL/min/kg | half-life ([4]; IV 1 mg/kg): 7.1 ± 0.95 h | Cmax ([4]; PO 5 mg/kg): 330 ± 56.5 ng/mL | half-life ([4]; PO 5 mg/kg): 8.13 ± 0.08 h | bioavailability ([4]; PO 5 mg/kg, read-out: F (oral bioavailability)): 39.6 ± 9% | IC50 (EGFR^WT): 632 nM | IC50 (EGFR^L858R/T790M/C797S): 2 nM | GI50 [3]: 189 nM
Compound: CCS(=O)(=O)n1cc2c3ccc(cc31)OCCCn1cc(cn1)-c1cc(c(OC)cc1N1CCOCC1)Nc1nccc-2n1 [HC9591, (Z)-1^1-Ethylsulfonyl-4^6-methoxy-4^4-morpholin-1^1H,5^1H-9-oxa-3-aza-1 (3,6)-indole-2(4,2)-pyrimidine-5(4,1) pyrazole-4(1,3)-benzenacyclononaphane]
